Structures are written as SMILES. pIC50: −log10 of the molar value. Bounds are passed on as bounds.

The source of these data is patent US20160002247A1, “8-SUBSTITUTED IMIDAZOPYRIMIDINONE DERIVATIVE HAVING AUTOTAXIN INHIBITORY ACTIVITY” (THE UNIVERSITY OF TOKYO, priority 2013, published 2016).

The experiment has as its target T1, Human autotaxin enzyme (Homo sapiens, UniProt Q13822).
T1 construct: purchased R&D System
The experiment can be described thus: Evaluation of autotaxin inhibitor, Method C (Test Example 3): 18:0 Lyso PC, choline assay, Resorufin fluorescence. The class given is biochemical. As to conditions: Assay Method C (Test Example 3), human autotaxin, 18:0 Lyso PC substrate; read-out: Inhibitory Activity (autotaxin enzyme inhibitory activity, IC50 class). The gist of the method: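 Choline-coupled fluorescence readout (20 min, resorufin at 531/598 nm) followed a 2 h room-temperature reaction of human autotaxin with 18:0 Lyso PC substrate (added as 200 μM solution) in pH 7.5 Tris buffer containing MgCl2 and Triton X-100. Percent inhibition scaled to no-compound (0%) and no-enzyme (100%) wells and plotted versus concentration.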
Take `CCCCCn1c(-c2ccc(C(=O)Nc3ccccc3)cc2)cc(=O)n2cc(-c3ccc(Cl)cc3)nc12` [Compound 469]: the negative logarithm of the IC50 (pIC50) was 7.00 to 8.00.

As to `CCCCCn1c(-c2ccc(C(=O)NCCNC(C)=O)cc2)cc(=O)n2cc(-c3ccc(Cl)cc3)nc12` [Compound 470], the pIC50 was 7.00 to 8.00.

`CCCCCn1c(-c2ccc(C(=O)Nc3ccc(OC)cc3)cc2)cc(=O)n2cc(-c3ccc(Cl)cc3)nc12` [Compound 471]: the negative logarithm of the IC50 (pIC50) is 6.00 to 7.00.

Turning to `CCCCCn1c(-c2ccc(C(=O)N3CCC(O)CC3)cc2)cc(=O)n2cc(-c3ccc(Cl)cc3)nc12` [Compound 472], the pIC50 is 7.00 to 8.00.

Turning to `CCCCCn1c(-c2ccc(C(=O)N3CCOCC3)cc2)cc(=O)n2cc(-c3ccc(Cl)cc3)nc12` [Compound 473], the pIC50 was 7.00 to 8.00.

On to `CCCCCn1c(-c2ccc(C(=O)N3CCN(C(C)=O)CC3)cc2)cc(=O)n2cc(-c3ccc(Cl)cc3)nc12` [Compound 474], for which the pIC50 is 7.00 to 8.00.

For the compound `CCCCCn1c(-c2ccc(C(=O)NCCF)cc2)cc(=O)n2cc(-c3ccc(Cl)cc3)nc12` [Compound 475], the pIC50 was 7.00 to 8.00.

For the compound `CCCCCn1c(-c2ccc(C(=O)N(C)CCO)cc2)cc(=O)n2cc(-c3ccc(Cl)cc3)nc12` [Compound 476], the negative-log IC50 (pIC50) is 7.00 to 8.00.

`CCCCCn1c(-c2ccc(C(=O)NC(C)(C)CO)cc2)cc(=O)n2cc(-c3ccc(Cl)cc3)nc12` [Compound 477]: the pIC50 was 7.00 to 8.00.

Regarding `CCCCCn1c(-c2ccc(C(=O)NCCC)cc2)cc(=O)n2cc(-c3ccc(Cl)cc3)nc12` [Compound 478], the negative-log IC50 (pIC50) is 7.00 to 8.00.

Regarding `CCCCCn1c(-c2ccc(C(=O)NCCCOC)cc2)cc(=O)n2cc(-c3ccc(Cl)cc3)nc12` [Compound 479], the pIC50 is 7.00 to 8.00.

With `CCCCCn1c(-c2ccc(C(=O)NCCOCCO)cc2)cc(=O)n2cc(-c3ccc(Cl)cc3)nc12` [Compound 480], the negative logarithm of the IC50 (pIC50) is 7.00 to 8.00.

`CCCCCn1c(-c2ccc(C(=O)NCCCO)cc2)cc(=O)n2cc(-c3ccc(Cl)cc3)nc12` [Compound 481]: the negative-log IC50 (pIC50) was 7.00 to 8.00.

Consider `CCCCCn1c(-c2ccc(C(=O)NC(CO)CO)cc2)cc(=O)n2cc(-c3ccc(Cl)cc3)nc12` [Compound 482], for which the pIC50 is greater than 8.00.

In the case of `CCCCCn1c(-c2ccc(C(=O)NCC3CC3)cc2)cc(=O)n2cc(-c3ccc(Cl)cc3)nc12` [Compound 483], the pIC50 was 7.00 to 8.00.

For the compound `C#CCNC(=O)c1ccc(-c2cc(=O)n3cc(-c4ccc(Cl)cc4)nc3n2CCCCC)cc1` [Compound 484], the negative-log IC50 (pIC50) is 7.00 to 8.00.

On to `CCCCCn1c(-c2ccc(C(=O)N3CCN(CCOC)CC3)cc2)cc(=O)n2cc(-c3ccc(Cl)cc3)nc12` [Compound 485], for which the negative logarithm of the IC50 (pIC50) is 7.00 to 8.00.

In the case of `CCCCCn1c(-c2ccc(C(=O)NC[C@H](O)CO)cc2)cc(=O)n2cc(-c3ccc(Cl)cc3)nc12` [Compound 486], the negative-log IC50 (pIC50) is greater than 8.00.

With `CCCCCn1c(-c2ccc(C(=O)NCC(O)CO)cc2)cc(=O)n2cc(-c3ccc(Cl)cc3)nc12` (centres unmarked) [Compound 487], the negative-log IC50 (pIC50) is greater than 8.00.

As to `CCCCCn1c(-c2ccc(C(=O)Nc3ncco3)cc2)cc(=O)n2cc(-c3ccc(Cl)cc3)nc12` [Compound 488], the pIC50 was 7.00 to 8.00.

As for `CCCCCn1c(-c2ccc(C(=O)NC3CN(C)C3)cc2)cc(=O)n2cc(-c3ccc(Cl)cc3)nc12` [Compound 489], the negative logarithm of the IC50 (pIC50) was 7.00 to 8.00.

Turning to `CCCCCn1c(-c2ccc(C(=O)NC3COC3)cc2)cc(=O)n2cc(-c3ccc(Cl)cc3)nc12` [Compound 490], the pIC50 was greater than 8.00.

Regarding `CCCCCn1c(-c2ccc(C(=O)N3CCC4(CN(C(=O)OC(C)(C)C)C4)C3)cc2)cc(=O)n2cc(-c3ccc(Cl)cc3)nc12` [Compound 491], the pIC50 was 6.00 to 7.00.

Take `CCCCCn1c(-c2ccc(C(=O)N3CCS(=O)(=O)CC3)cc2)cc(=O)n2cc(-c3ccc(Cl)cc3)nc12` [Compound 492]: the pIC50 is 7.00 to 8.00.

As to `CCCCCn1c(-c2ccc(C(=O)NC3CCS(=O)(=O)CC3)cc2)cc(=O)n2cc(-c3ccc(Cl)cc3)nc12` [Compound 493], the pIC50 was 7.00 to 8.00.

On to `CCCCCn1c(-c2ccc(C(=O)NCCS(C)(=O)=O)cc2)cc(=O)n2cc(-c3ccc(Cl)cc3)nc12` [Compound 494], for which the pIC50 was 7.00 to 8.00.

In general, pIC50 refers to −log10 of the IC50, conventionally taken in molar units.
